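48-hour exposure; five concentrations; linearly interpolated endpoints. At the GI50, growth is halved.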 Activity calls are given as the source filed them. No stated cut-off is given here; in the data, active = GI50 up to about 1.1 µM and inactive = higher.
Experiments:
Test in all cases: growth of human tumour cells (NCI), 48 h
HL-60 = test system: HL-60
Malme-3M = test system: Malme-3M
786-0 = test system: 786-0
KM12 = test system: KM12
SN12C = test system: SN12C
M19-MEL = test system: M19-MEL
OVCAR-5 = test system: OVCAR-5
UACC-62 = test system: UACC-62
TK-10 = test system: TK-10
SF-268 = test system: SF-268
MCF7 = test system: MCF7
NCI/ADR-RES = test system: NCI/ADR-RES
MDA-N = test system: MDA-N
MDA-MB-231 = test system: MDA-MB-231
BT-549 = test system: BT-549
DU-145 = test system: DU-145
Hs-578T = test system: Hs-578T
MDA-MB-435 = test system: MDA-MB-435
T47D = test system: T47D
PC-3 = test system: PC-3

Structure (SMILES): NCCNCc1c2ccccc2c(CNCCN)c2ccccc12
- GI50 (HL-60): 20.4 µM (inactive)
- GI50 (Malme-3M): 14 µM (inactive)
- GI50 (786-0): 13.3 µM (inactive)
- GI50 (KM12): 15.3 µM (inactive)
- GI50 (SN12C): 10.5 µM (inactive)
- GI50 (M19-MEL): 14.8 µM (inactive)
- GI50 (OVCAR-5): 27.4 µM (inactive)
- GI50 (UACC-62): 22 µM (inactive)
- GI50 (TK-10): 69 µM (inactive)
- GI50 (SF-268): 7.98 µM (inactive)

Structure (SMILES): CC(C)(C)c1ccc2c(c1)OP1(Oc3cccc4cccnc34)(O2)Oc2ccc(C(C)(C)C)cc2O1
- GI50 (HL-60): 1.76 µM (inactive)
- GI50 (Malme-3M): 5.28 µM (inactive)
- GI50 (MCF7): 0.655 µM (active)
- GI50 (NCI/ADR-RES): 2.96 µM (inactive)
- GI50 (KM12): 6.73 µM (inactive)
- GI50 (SN12C): 12.8 µM (inactive)
- GI50 (M19-MEL): 10.5 µM (inactive)
- GI50 (OVCAR-5): 4.17 µM (inactive)
- GI50 (UACC-62): 3.26 µM (inactive)
- GI50 (SF-268): 6.56 µM (inactive)

Structure (SMILES): O=P(Nc1ccc(Cl)cc1)(Oc1ccccc1)N(CCCl)CCCl (stereo unspecified)
- GI50 (Malme-3M): > 100 µM (inactive)
- GI50 (KM12): > 100 µM (inactive)
- GI50 (SN12C): > 100 µM (inactive)
- GI50 (M19-MEL): > 100 µM (inactive)
- GI50 (OVCAR-5): > 100 µM (inactive)
- GI50 (UACC-62): > 100 µM (inactive)
- GI50 (TK-10): > 100 µM (inactive)
- GI50 (SF-268): > 100 µM (inactive)

Structure (SMILES): C[C@]12CCC3[C@@H](C[C@H]4OC(=O)[C@@]35CCC(=O)C=C45)C1CCC2=O (stereo partly specified)
- GI50 (HL-60): > 100 µM (inactive)
- GI50 (Malme-3M): > 100 µM (inactive)
- GI50 (786-0): > 100 µM (inactive)
- GI50 (KM12): > 100 µM (inactive)
- GI50 (SN12C): > 100 µM (inactive)
- GI50 (M19-MEL): > 100 µM (inactive)
- GI50 (OVCAR-5): > 100 µM (inactive)
- GI50 (TK-10): > 100 µM (inactive)
- GI50 (SF-268): > 100 µM (inactive)

Structure (SMILES): O=C(NC(Cc1ccc(I)cc1)C(=O)O)c1cccc(Br)c1 (stereo unspecified)
- GI50 (HL-60): > 100 µM (inactive)
- GI50 (Malme-3M): 70.1 µM (inactive)
- GI50 (MCF7): 38 µM (inactive)
- GI50 (NCI/ADR-RES): 99.5 µM (inactive)
- GI50 (KM12): 55.1 µM (inactive)
- GI50 (SN12C): > 100 µM (inactive)
- GI50 (M19-MEL): 56.2 µM (inactive)
- GI50 (OVCAR-5): > 100 µM (inactive)
- GI50 (UACC-62): 50.6 µM (inactive)
- GI50 (SF-268): > 100 µM (inactive)

Structure (SMILES): CC(C)(C)c1nc2c(o1)/C(=N\c1ccccc1)c1ccccc1C2=O
- GI50 (HL-60): 2.87 µM (inactive)
- GI50 (Malme-3M): 1.4 µM (inactive)
- GI50 (786-0): 24.4 µM (inactive)
- GI50 (KM12): 11.7 µM (inactive)
- GI50 (SN12C): 3.64 µM (inactive)
- GI50 (M19-MEL): 0.718 µM (active)
- GI50 (OVCAR-5): 13.6 µM (inactive)
- GI50 (UACC-62): 2.17 µM (inactive)
- GI50 (TK-10): 30.2 µM (inactive)
- GI50 (SF-268): 3.55 µM (inactive)

Structure (SMILES): CCOC(=O)CC1(c2cccc3ccccc23)OC(=O)c2ccccc21 (stereo unspecified)
- GI50 (HL-60): 22.1 µM (inactive)
- GI50 (Malme-3M): 27.5 µM (inactive)
- GI50 (KM12): 40.5 µM (inactive)
- GI50 (SN12C): 43.1 µM (inactive)
- GI50 (M19-MEL): 48.5 µM (inactive)
- GI50 (OVCAR-5): > 100 µM (inactive)
- GI50 (UACC-62): 57.7 µM (inactive)
- GI50 (TK-10): 80 µM (inactive)
- GI50 (SF-268): 32.7 µM (inactive)

Structure (SMILES): C=C1C(O)C2(O)OCC34C(CC5C(C)=CC(=O)C(O)C5(C)C23)OC(=O)C(OC(=O)C/C=C/CCCCCCCC)C14 (stereo unspecified)
- GI50 (HL-60): 0.02 µM (active)
- GI50 (Malme-3M): 0.02 µM (active)
- GI50 (NCI/ADR-RES): 0.162 µM (active)
- GI50 (KM12): 0.0294 µM (active)
- GI50 (SN12C): 0.0275 µM (active)
- GI50 (M19-MEL): 0.02 µM (active)
- GI50 (OVCAR-5): 0.112 µM (active)
- GI50 (UACC-62): 0.0214 µM (active)
- GI50 (SF-268): 0.0209 µM (active)

Structure (SMILES): Nc1nc(Cl)cc(NCCCCO)n1
- GI50 (HL-60): > 100 µM (inactive)
- GI50 (Malme-3M): > 100 µM (inactive)
- GI50 (KM12): > 100 µM (inactive)
- GI50 (SN12C): > 100 µM (inactive)
- GI50 (M19-MEL): > 100 µM (inactive)
- GI50 (OVCAR-5): > 100 µM (inactive)
- GI50 (UACC-62): > 100 µM (inactive)
- GI50 (TK-10): > 100 µM (inactive)
- GI50 (SF-268): > 100 µM (inactive)

Structure (SMILES): O=S(O)CCCCCSSc1ccccc1
- GI50 (HL-60): 14.1 µM (inactive)
- GI50 (Malme-3M): 10 µM (inactive)
- GI50 (KM12): 53.3 µM (inactive)
- GI50 (SN12C): 27.8 µM (inactive)
- GI50 (M19-MEL): 50 µM (inactive)
- GI50 (OVCAR-5): > 100 µM (inactive)
- GI50 (UACC-62): 28.3 µM (inactive)
- GI50 (TK-10): 84.9 µM (inactive)
- GI50 (SF-268): 15.8 µM (inactive)

Structure (SMILES): C=CC1=C(C)c2cc3[nH]c(c4c5nc(cc6[nH]c(cc1n2)c(C)c6CC)C(C)=C5C(=O)[C@@H]4C(=O)OC)[C@@H](CCC(=O)O)[C@@H]3C
- GI50 (MDA-N): 5.27 µM (inactive)
- GI50 (MDA-MB-231): 11.2 µM (inactive)
- GI50 (HL-60): 1.37 µM (inactive)
- GI50 (Malme-3M): 12.2 µM (inactive)
- GI50 (MCF7): 2.98 µM (inactive)
- GI50 (BT-549): 2.31 µM (inactive)
- GI50 (NCI/ADR-RES): 9.02 µM (inactive)
- GI50 (DU-145): 33.8 µM (inactive)
- GI50 (786-0): 7.71 µM (inactive)
- GI50 (KM12): 4.83 µM (inactive)
- GI50 (Hs-578T): 3.66 µM (inactive)
- GI50 (SN12C): 5.45 µM (inactive)
- GI50 (MDA-MB-435): 2.24 µM (inactive)
- GI50 (T47D): 5.81 µM (inactive)
- GI50 (OVCAR-5): 3.41 µM (inactive)
- GI50 (PC-3): 3.62 µM (inactive)
- GI50 (UACC-62): 2.16 µM (inactive)
- GI50 (TK-10): 2.82 µM (inactive)
- GI50 (SF-268): 9.82 µM (inactive)

Structure (SMILES): CN(C)CN(C)c1nc(N(C)C)nc(N(C)CN(C)C)n1
- GI50 (HL-60): 17 µM (inactive)
- GI50 (786-0): 34.4 µM (inactive)
- GI50 (KM12): > 100 µM (inactive)
- GI50 (SN12C): 63.5 µM (inactive)
- GI50 (M19-MEL): 31.8 µM (inactive)
- GI50 (UACC-62): 19.8 µM (inactive)
- GI50 (TK-10): > 100 µM (inactive)
- GI50 (SF-268): 51.6 µM (inactive)

Structure (SMILES): CC(=O)OC1CCC2(C)C(CCC3C4CC=C(C5(C)OCCO5)C4(C)CCC32)C1 (stereo unspecified)
- GI50 (MDA-N): 20.3 µM (inactive)
- GI50 (MDA-MB-231): 33.2 µM (inactive)
- GI50 (HL-60): 19.9 µM (inactive)
- GI50 (Malme-3M): 22.1 µM (inactive)
- GI50 (MCF7): 22.6 µM (inactive)
- GI50 (BT-549): 20.6 µM (inactive)
- GI50 (NCI/ADR-RES): 20.6 µM (inactive)
- GI50 (DU-145): 41.3 µM (inactive)
- GI50 (786-0): 30.4 µM (inactive)
- GI50 (KM12): 23.6 µM (inactive)
- GI50 (Hs-578T): 23.3 µM (inactive)
- GI50 (SN12C): 19.6 µM (inactive)
- GI50 (MDA-MB-435): 20.3 µM (inactive)
- GI50 (T47D): 22.9 µM (inactive)
- GI50 (OVCAR-5): 22.1 µM (inactive)
- GI50 (PC-3): 17.3 µM (inactive)
- GI50 (UACC-62): 19.9 µM (inactive)
- GI50 (TK-10): 22.5 µM (inactive)
- GI50 (SF-268): 27.8 µM (inactive)

Structure (SMILES): CCOC(=O)c1sc2nc(SC)nc3c2c1N=CN3c1ccccc1Cl
- GI50 (MDA-N): > 100 µM (inactive)
- GI50 (MDA-MB-231): 30.9 µM (inactive)
- GI50 (HL-60): 79.8 µM (inactive)
- GI50 (Malme-3M): 35 µM (inactive)
- GI50 (MCF7): > 100 µM (inactive)
- GI50 (BT-549): 26.7 µM (inactive)
- GI50 (NCI/ADR-RES): > 100 µM (inactive)
- GI50 (DU-145): > 100 µM (inactive)
- GI50 (786-0): 14.1 µM (inactive)
- GI50 (KM12): > 100 µM (inactive)
- GI50 (Hs-578T): 5.58 µM (inactive)
- GI50 (SN12C): > 100 µM (inactive)
- GI50 (MDA-MB-435): > 100 µM (inactive)
- GI50 (T47D): 58.5 µM (inactive)
- GI50 (OVCAR-5): > 100 µM (inactive)
- GI50 (PC-3): > 100 µM (inactive)
- GI50 (UACC-62): 33 µM (inactive)
- GI50 (TK-10): > 100 µM (inactive)
- GI50 (SF-268): 24.1 µM (inactive)

Structure (SMILES): Oc1[nH]c(Nc2cccc(CC(F)(F)F)c2)nc2ncnc1-2
- GI50 (MDA-N): > 100 µM (inactive)
- GI50 (MDA-MB-231): > 100 µM (inactive)
- GI50 (HL-60): > 100 µM (inactive)
- GI50 (Malme-3M): > 100 µM (inactive)
- GI50 (MCF7): > 100 µM (inactive)
- GI50 (BT-549): > 100 µM (inactive)
- GI50 (NCI/ADR-RES): > 100 µM (inactive)
- GI50 (DU-145): > 100 µM (inactive)
- GI50 (786-0): > 100 µM (inactive)
- GI50 (KM12): > 100 µM (inactive)
- GI50 (Hs-578T): > 100 µM (inactive)
- GI50 (SN12C): > 100 µM (inactive)
- GI50 (MDA-MB-435): > 100 µM (inactive)
- GI50 (T47D): > 100 µM (inactive)
- GI50 (OVCAR-5): > 100 µM (inactive)
- GI50 (PC-3): > 100 µM (inactive)
- GI50 (UACC-62): > 100 µM (inactive)
- GI50 (TK-10): > 100 µM (inactive)
- GI50 (SF-268): > 100 µM (inactive)

Structure (SMILES): Cc1ccc(NC(=O)C2C(=O)N(c3ccc(C)c(C)c3)C(=O)/C2=N\NC(N)=S)cc1C (stereo unspecified)
- GI50 (HL-60): > 100 µM (inactive)
- GI50 (Malme-3M): > 100 µM (inactive)
- GI50 (786-0): > 100 µM (inactive)
- GI50 (KM12): > 100 µM (inactive)
- GI50 (SN12C): 53.2 µM (inactive)
- GI50 (M19-MEL): > 100 µM (inactive)
- GI50 (UACC-62): 50 µM (inactive)
- GI50 (TK-10): > 100 µM (inactive)
- GI50 (SF-268): 61.4 µM (inactive)

Source: ChEMBL document CHEMBL1201862, “PubChem BioAssay data set” (2004)
